We go through two compounds from PMC9853918 (Journal of chemical information and modeling, 2022).

For test [1], the system named is H11G11-BG βGUS. Put plainly: βGUS. The following applies: for efficacy: 0.5 nM GUS, 100 μM 4MUG, 1 hr at room temperature, negative = inhibition; for curve class (CC): dose-response curve class. Format: biochemical, uncultured bacterium.
Test [2] concerns the target (UniProt D5GU71). Nature of the test: βGUS. Format: biochemical, uncultured bacterium.

Sequence of (UniProt D5GU71) (D5GU71 1-754): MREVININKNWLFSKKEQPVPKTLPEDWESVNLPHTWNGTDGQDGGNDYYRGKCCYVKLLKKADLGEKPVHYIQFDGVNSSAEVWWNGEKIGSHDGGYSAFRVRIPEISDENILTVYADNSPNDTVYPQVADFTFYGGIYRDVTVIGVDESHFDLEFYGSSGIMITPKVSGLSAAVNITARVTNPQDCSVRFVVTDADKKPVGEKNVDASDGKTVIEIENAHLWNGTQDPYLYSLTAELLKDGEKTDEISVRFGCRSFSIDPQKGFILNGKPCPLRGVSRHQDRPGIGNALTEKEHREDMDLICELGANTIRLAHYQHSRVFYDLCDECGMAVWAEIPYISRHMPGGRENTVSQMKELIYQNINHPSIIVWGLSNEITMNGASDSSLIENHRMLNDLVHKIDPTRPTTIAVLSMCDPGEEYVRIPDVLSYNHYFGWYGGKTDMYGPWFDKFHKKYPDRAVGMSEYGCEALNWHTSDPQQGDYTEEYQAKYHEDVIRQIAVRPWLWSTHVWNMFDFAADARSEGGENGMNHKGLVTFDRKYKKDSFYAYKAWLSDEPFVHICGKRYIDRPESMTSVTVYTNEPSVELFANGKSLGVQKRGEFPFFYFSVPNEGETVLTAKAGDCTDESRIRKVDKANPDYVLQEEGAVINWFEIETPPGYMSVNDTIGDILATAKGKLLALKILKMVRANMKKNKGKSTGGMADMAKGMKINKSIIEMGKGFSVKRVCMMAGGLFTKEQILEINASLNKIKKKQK

What is called IC50 is the midpoint of a concentration-inhibition curve. Low values mean inhibition by little substance, high ones a need for much substance. For the compound `O=C(Nc1cccc(-c2nc3ncccc3o2)c1)c1ccc(-c2cccc(Cl)c2Cl)o1` [NCGC00099510, 5-(2,3-dichlorophenyl)-N-(3-(oxazolo[4,5-b]pyridine-2-yl)phenyl)furan-2-carboxamide], in test [1], the efficacy is −70% and the “curve class (CC)” value was −1.2. In test [2], this compound came in with an IC50 of 9.6 µM.

On to `c1ccc(Nc2cc3c(cn2)CN(CC2CC2)CCN3)cc1` [NCGC00411059, 4-(cyclopropylmethyl)-N-phenyl-2,3,4,5-tetrahydro-1H-pyrido[4,3-e][1,4]diazepin-8-amine], for which, in test [1], the efficacy was −72% and the “curve class (CC)” value is listed as −2.2.
